Assay results: ChEMBL document CHEMBL1201862, “PubChem BioAssay data set” (2004)
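Briefly, cells in 96-well plates were exposed to five compound concentrations for 48 h, and endpoints were estimated by linear interpolation. GI50 = concentration required for 50% inhibition of growth.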 Calls of active or inactive are those of the source. Rule as the data show it: active = GI50 up to about 1.1 µM and inactive = higher.

How the values were obtained:
Experiment in all cases: NCI-60 cell line screen, 48 h
[1] = test system: DMS-114
[2] = test system: SF-268
[3] = test system: RXF 631
[4] = test system: OVCAR-8
[5] = test system: SNB-78
[6] = test system: NCI-H226
[7] = test system: HOP-18
[8] = test system: UACC-257
[9] = test system: SNB-75
[10] = test system: HCC 2998
[11] = test system: SNB-19
[12] = test system: HOP-92
[13] = test system: COLO 205
[14] = test system: SK-MEL-5
[15] = test system: DLD-1
[16] = test system: HOP-62
[17] = test system: RPMI-8226
[18] = test system: A498
[19] = test system: TK-10
[20] = test system: M19-MEL
[21] = test system: SF-539
[22] = test system: NCI-H23
[23] = test system: DMS-273
[24] = test system: KM12
[25] = test system: IGROV-1
[26] = test system: EKVX
[27] = test system: LXFL 529
[28] = test system: SK-OV-3
[29] = test system: SK-MEL-28
[30] = test system: U-251
[31] = test system: KM-20L2
[32] = test system: OVCAR-3
[33] = test system: ACHN
[34] = test system: MOLT-4
[35] = test system: SN12C
[36] = test system: UO-31
[37] = test system: SW-620
[38] = test system: OVCAR-5
[39] = test system: K562
[40] = test system: CAKI-1
[41] = test system: UACC-62
[42] = test system: CCRF-CEM
[43] = test system: HCT-15
[44] = test system: Malme-3M
[45] = test system: HT-29
[46] = test system: NCI-H460
[47] = test system: HCT-116
[48] = test system: HL-60
[49] = test system: OVCAR-4
[50] = test system: SF-295
[51] = test system: 786-0
[52] = test system: A549
[53] = test system: M14
[54] = test system: LOX IMVI
[55] = test system: XF498
[56] = test system: SR
[57] = test system: NCI-H522
[58] = test system: RXF 393
[59] = test system: SK-MEL-2

CCOC(=O)/C(C#N)=C(O)/C(=C\c1ccc(Br)cc1)NC(=O)c1ccccc1
GI50 [1]: > 100 µM (inactive)
GI50 [2]: > 100 µM (inactive)
GI50 [3]: > 100 µM (inactive)
GI50 [4]: > 100 µM (inactive)
GI50 [5]: > 100 µM (inactive)
GI50 [6]: 30.4 µM (inactive)
GI50 [7]: > 100 µM (inactive)
GI50 [8]: > 100 µM (inactive)
GI50 [9]: > 100 µM (inactive)
GI50 [10]: > 100 µM (inactive)
GI50 [11]: > 100 µM (inactive)
GI50 [12]: > 100 µM (inactive)
GI50 [13]: > 100 µM (inactive)
GI50 [14]: > 100 µM (inactive)
GI50 [15]: > 100 µM (inactive)
GI50 [16]: > 100 µM (inactive)
GI50 [17]: 22.4 µM (inactive)
GI50 [18]: > 100 µM (inactive)
GI50 [19]: > 100 µM (inactive)
GI50 [20]: > 100 µM (inactive)
GI50 [21]: > 100 µM (inactive)
GI50 [22]: > 100 µM (inactive)
GI50 [23]: > 100 µM (inactive)
GI50 [24]: > 100 µM (inactive)
GI50 [25]: > 100 µM (inactive)
GI50 [26]: > 100 µM (inactive)
GI50 [27]: > 100 µM (inactive)
GI50 [28]: > 100 µM (inactive)
GI50 [29]: > 100 µM (inactive)
GI50 [30]: > 100 µM (inactive)
GI50 [31]: > 100 µM (inactive)
GI50 [32]: > 100 µM (inactive)
GI50 [33]: > 100 µM (inactive)
GI50 [34]: > 100 µM (inactive)
GI50 [35]: > 100 µM (inactive)
GI50 [36]: > 100 µM (inactive)
GI50 [37]: 19.2 µM (inactive)
GI50 [38]: > 100 µM (inactive)
GI50 [39]: > 100 µM (inactive)
GI50 [40]: > 100 µM (inactive)
GI50 [41]: > 100 µM (inactive)
GI50 [42]: > 100 µM (inactive)
GI50 [43]: 37.4 µM
GI50 [44]: > 100 µM (inactive)
GI50 [45]: > 100 µM (inactive)
GI50 [46]: > 100 µM (inactive)
GI50 [47]: 16.4 µM (inactive)
GI50 [48]: > 100 µM (inactive)
GI50 [49]: > 100 µM (inactive)
GI50 [50]: > 100 µM (inactive)
GI50 [51]: > 100 µM (inactive)
GI50 [52]: > 100 µM (inactive)
GI50 [53]: > 100 µM (inactive)

OCC(O)C(OC1OC(CO)C(O)C(O)C1O)c1nn(-c2ccccc2)c2nc3cc(Cl)c(Cl)cc3cc12 (stereo not given)
GI50 [2]: > 100 µM (inactive)
GI50 [54]: > 100 µM (inactive)
GI50 [3]: > 100 µM (inactive)
GI50 [4]: > 100 µM (inactive)
GI50 [55]: > 100 µM (inactive)
GI50 [5]: > 100 µM (inactive)
GI50 [8]: > 100 µM (inactive)
GI50 [9]: > 100 µM (inactive)
GI50 [10]: > 100 µM (inactive)
GI50 [11]: > 100 µM (inactive)
GI50 [15]: > 100 µM (inactive)
GI50 [16]: > 100 µM (inactive)
GI50 [17]: > 100 µM (inactive)
GI50 [18]: > 100 µM (inactive)
GI50 [19]: > 100 µM (inactive)
GI50 [20]: > 100 µM (inactive)
GI50 [21]: > 100 µM (inactive)
GI50 [22]: > 100 µM (inactive)
GI50 [24]: 45 µM (inactive)
GI50 [26]: > 100 µM (inactive)
GI50 [27]: > 100 µM (inactive)
GI50 [56]: > 100 µM (inactive)
GI50 [28]: > 100 µM (inactive)
GI50 [29]: > 100 µM (inactive)
GI50 [30]: > 100 µM (inactive)
GI50 [31]: > 100 µM (inactive)
GI50 [32]: > 100 µM (inactive)
GI50 [33]: > 100 µM (inactive)
GI50 [34]: > 100 µM (inactive)
GI50 [35]: > 100 µM (inactive)
GI50 [36]: > 100 µM (inactive)
GI50 [38]: > 100 µM (inactive)
GI50 [39]: > 100 µM (inactive)
GI50 [57]: 63 µM (inactive)
GI50 [41]: > 100 µM (inactive)
GI50 [42]: > 100 µM (inactive)
GI50 [43]: > 100 µM
GI50 [44]: > 100 µM (inactive)
GI50 [45]: > 100 µM (inactive)
GI50 [46]: > 100 µM (inactive)
GI50 [47]: > 100 µM (inactive)
GI50 [49]: > 100 µM (inactive)
GI50 [50]: > 100 µM (inactive)
GI50 [58]: > 100 µM (inactive)
GI50 [51]: > 100 µM (inactive)
GI50 [53]: > 100 µM (inactive)

c1ccc(C(c2ccccc2)c2cccnc2)cc1
GI50 [1]: 82 µM (inactive)
GI50 [2]: > 100 µM (inactive)
GI50 [54]: > 100 µM (inactive)
GI50 [3]: > 100 µM (inactive)
GI50 [4]: 99.3 µM (inactive)
GI50 [59]: > 100 µM (inactive)
GI50 [5]: > 100 µM (inactive)
GI50 [6]: > 100 µM (inactive)
GI50 [7]: > 100 µM (inactive)
GI50 [8]: > 100 µM (inactive)
GI50 [9]: 69 µM (inactive)
GI50 [10]: > 100 µM (inactive)
GI50 [11]: > 100 µM (inactive)
GI50 [13]: > 100 µM (inactive)
GI50 [14]: 83.8 µM (inactive)
GI50 [15]: > 100 µM (inactive)
GI50 [16]: > 100 µM (inactive)
GI50 [17]: 46.1 µM (inactive)
GI50 [18]: > 100 µM (inactive)
GI50 [19]: > 100 µM (inactive)
GI50 [20]: > 100 µM (inactive)
GI50 [21]: > 100 µM (inactive)
GI50 [22]: 65.8 µM (inactive)
GI50 [23]: > 100 µM (inactive)
GI50 [24]: > 100 µM (inactive)
GI50 [25]: > 100 µM (inactive)
GI50 [26]: 99.5 µM (inactive)
GI50 [28]: > 100 µM (inactive)
GI50 [29]: > 100 µM (inactive)
GI50 [30]: > 100 µM (inactive)
GI50 [31]: > 100 µM (inactive)
GI50 [32]: > 100 µM (inactive)
GI50 [33]: > 100 µM (inactive)
GI50 [35]: > 100 µM (inactive)
GI50 [36]: 97.9 µM (inactive)
GI50 [37]: > 100 µM (inactive)
GI50 [38]: > 100 µM (inactive)
GI50 [39]: 38.3 µM (inactive)
GI50 [40]: > 100 µM (inactive)
GI50 [41]: > 100 µM (inactive)
GI50 [42]: > 100 µM (inactive)
GI50 [43]: > 100 µM
GI50 [44]: > 100 µM (inactive)
GI50 [45]: > 100 µM (inactive)
GI50 [46]: > 100 µM (inactive)
GI50 [47]: > 100 µM (inactive)
GI50 [49]: > 100 µM (inactive)
GI50 [50]: > 100 µM (inactive)
GI50 [51]: > 100 µM (inactive)
GI50 [52]: 88.1 µM (inactive)
GI50 [53]: > 100 µM (inactive)
